In US11339165B2, “Pyrazolopyrimidines having activity against the respiratory syncytial virus (RSV)” (priority 2017, dated 2022):
Where two headings read alike, the source gives them in different places.

Tests used:
rgRSV224 virus = test: Antiviral activity: rgRSV224 (GFP) replication in HeLa cells; type: cell-based, respiratory syncytial virus (RSV)
HeLa cells [1] = test: Cytotoxicity in HeLa cells (ATP content, ATPlite kit); details: read-out: TOX HELA CC50; HeLa cells, three days incubation, ATP content
HeLa cells [2] = tested on: HeLa cells
[3] = Cytotoxicity in HeLa cells (ATP content, ATPlite kit); details: human
[4] = Pharmacokinetics after single intravenous administration in the fasted male Beagle dog; type: in vivo; details: intravenous administration at 1 mg/kg in dogs, first 8 hours after administration
Protocol: E.2 Pharmacokinetics after Single Intravenous Administration in the Fasted Male Beagle Dog
The test compound was dissolved in a 20% (w/v) hydroxypropyl-β-cyclodextrin (HP-beta-CD) solution at a final concentration of 2 mg/mL for the intravenous formulation. NaOH was added to the formulations to facilitate dissolution and after total dissolution the pH was adjusted with HCl to 8.4. The intravenous (IV) formulation was made isotonic with mannitol. Prior to dosing, all formulations were stored at room temperature and protected from light. The IV formulation was dosed in a cephalic vein at 0.5 mL/kg to obtain a final dose of 1 mg/kg.
Three male Beagle dogs, with a mean weight of 10.9±1.1 kg, were used. A complete concentration time profile was obtained from each individual animal. Prior to dosing, animals were fasted overnight. Their standard dry diet was returned to them at 2 hours post dose. Tap water was available ad libitum.
From each individual animal, blood samples were taken at 7 and 20 minutes, 1, 2, 4, 7, 24 and 48 hours after intravenous dose administration. […] Plasma samples were analysed using a qualified research LC-MS/MS method. The key analytical performance (linearity, upper and lower limit of quantification, accuracy and precision) of the method was reported together with the plasma concentrations. The lower limit of quantification (LLOQ) was 10.0 ng/mL. […]

in vitro = details: human, TOX HELA CC50 (μM)
[5] = rgRSV224 virus (MOI=1), HeLa cells, GFP expression three days post-virus exposure, read-out: RSV HELA EC50
[6] = human respiratory syncytial virus, HeLa, 72 h, read-out: RSV HELA EC50 (μM), rgRSV224 virus (MOI=1), HeLa cells, GFP expression three days post-virus exposure

Row | SMILES | EC50 (rgRSV224 virus; [6]) [µM] | melting point [°C] | CC50 at 3 days (in vitro) [µM] | other results
1 | C[C@@H]1c2ccccc2CCN1C(=O)c1cc(C2CC2)n2nc(-c3ccc(N4C[C@@H](C(N)=O)C[C@H]4C)cc3F)cc2n1 (relative stereo) [Compound 34, (3*S,5*R)-1-(4-{7-cyclopropyl-5-[(1R)-1-methyl-1,2,3,4-tetrahydroisoquinoline-2-carbonyl]pyrazolo[1,5-a]pyrimidin-2-yl}-3-fluorophenyl)-5-methylpyrrolidine-3-carboxamide] | – | – | – | EC50 (rgRSV224 virus; [5]): 0.037 µM; CC50 (HeLa cells [1]): 23.1 µM
2 | C[C@@H]1c2ccccc2CCN1C(=O)c1cc(C2CC2)n2nc(-c3ccc(N4C[C@@H](C(N)=O)C[C@@H]4C)cc3F)cc2n1 (relative stereo) [Compound 35, (3*S,5*S)-1-(4-{7-cyclopropyl-5-[(1R)-1-methyl-1,2,3,4-tetrahydroisoquinoline-2-carbonyl]pyrazolo[1,5-a]pyrimidin-2-yl}-3-fluorophenyl)-5-methylpyrrolidine-3-carboxamide] | – | – | – | EC50 (rgRSV224 virus; [5]): 0.033 µM; CC50 (HeLa cells [2]): 25.5 µM
3 | C[C@@H]1c2ccccc2CCN1C(=O)c1cc(C2CC2)n2nc(-c3ccc(N4CCC(O)(CO)C4)cc3F)cc2n1 (single isomer, unassigned) [Compound 104] | – | – | – | EC50 (rgRSV224 virus; read-out: RSV HELA EC50, rgRSV224 virus (MOI=1), HeLa cells, GFP expression three days post-virus exposure): 0.025 µM; CC50 (HeLa cells [2]; human, 3 days): 28.2 µM
4 | C[C@@H]1c2ccccc2CCN1C(=O)c1cc(C2CC2)n2nc(-c3ccc(N4CC[C@@H](NP(C)(C)=O)C4)cc3F)cc2n1 [Compound 30, (1R)-2-(7-Cyclopropyl-2-{4-[(3R)-3-[(dimethylphosphoryl)amino]pyrrolidin-1-yl]-2-fluorophenyl}pyrazolo[1,5-a]pyrimidine-5-carbonyl)-1-methyl-1,2,3,4-tetrahydro-isoquinoline] | 0.036 | – | – | CC50 at 3 days [3]: 33.9 µM
5 | C[C@@H]1c2ccccc2CCN1C(=O)c1cc(C2CC2)n2nc(-c3ccc(N4CC[C@H](NP(C)(C)=O)C4)cc3F)cc2n1 [Compound 31, (1R)-2-(7-Cyclopropyl-2-{4-[(3S)-3-[(dimethylphosphoryl)amino]pyrrolidin-1-yl]-2-fluorophenyl}pyrazolo[1,5-a]pyrimidine-5-carbonyl)-1-methyl-1,2,3,4-tetrahydro-isoquinoline] | 0.036 | – | – | CC50 at 3 days [3]: 39.1 µM
6 | CNC(=O)[C@H]1CCN(c2ccc(-c3cc4nc(C(=O)N5CCc6ccccc6[C@H]5C)cc(C5CC5)n4n3)c(F)c2)C1 [Compound 37, (3S)-1-(4-{7-Cyclopropyl-5-[(1R)-1-methyl-1,2,3,4-tetrahydroisoquinoline-2-carbonyl]pyrazolo[1,5-a]pyrimidin-2-yl}-3-fluorophenyl)-N-methylpyrrolidine-3-carboxamide] | 0.019 | 123.18 | 62 | plasma concentration profile [4]: does not show this rapid decline
7 | COCCOc1cc(N2CC[C@H](C(N)=O)C2)nc(F)c1-c1cc2nc(C(=O)N3CCc4ccccc4[C@H]3C)cc(C3CC3)n2n1 [Compound 87, (3S)-1-(5-{7-Cyclopropyl-5-[(1R)-1-methyl-1,2,3,4-tetrahydroisoquinoline-2-carbonyl]-pyrazolo[1,5-a]pyrimidin-2-yl}-6-fluoro-4-(2-methoxyethoxy)pyridin-2-yl)pyrrolidine-3-carboxamide] | 0.215 | 152.28 | 47.4 | –
8 | C[C@@H]1c2ccccc2CCN1C(=O)c1cc(C2CC2)n2nc(-c3ccc(N4CC(C(N)=O)C4)cc3F)cc2n1 [Compound 91, 1-(4-{7-Cyclopropyl-5-[(1R)-1-methyl-1,2,3,4-tetrahydroisoquinoline-2-carbonyl]pyrazolo[1,5-a]pyrimidin-2-yl}-3-fluorophenyl)azetidine-3-carboxamide] | 0.036 | 236.01 | 28.3 | –
9 | C[C@@H]1c2ccccc2CCN1C(=O)c1cc(C2CC2)n2nc(-c3ccc(N4C[C@H](O)[C@@H](O)C4)cc3F)cc2n1 [Compound 102, (7-cyclopropyl-2-(4-((3S,4S)-3,4-dihydroxypyrrolidin-1-yl)-2-fluorophenyl)pyrazolo[1,5-a]pyrimidin-5-yl)((R)-1-methyl-3,4-dihydroisoquinolin-2(1H)-yl)methanone] | 0.026 | – | 44.4 | plasma concentration profile [4]: does not show this rapid decline
